Results published in US9856225B2, “Substituted phenazines as antimicrobial agents” (University of Florida Research Foundation, Incorporated, priority 2013, dated 2018).
Values joined by “and” are separate entries in the source; they are usually repeats but may differ in a detail not shown here. Equal values may be shown once. “Also recorded” adds a separate entry of the source. Read-outs that look alike come from different tables or passages of the source. Marks after values point to notes of the source that are not given here.

How the values were obtained:
Type in all cases: cell-based
[1] = system: Staphylococcus aureus (ATCC 25923); experiment: MIC broth microdilution (CLSI), Luria Broth
Procedure: (§1) Antibiotic Susceptibility Tests (MIC Assay Protocol). The minimum inhibitory concentration (MIC) for each compound described herein was determined by the broth microdilution method as recommended by the Clinical and Laboratory Standards Institute (CLSI) (Clinical and Laboratory Standards Institute. 2009. Methods for dilution antimicrobial susceptibility tests for bacteria that grow aerobically; approved standard, eighth edition (M7-A8)). In a 96-well plate, eleven two-fold serial dilutions of each compound were made in a final volume of 100 μL Luria Broth (one column served as a blank; see the MIC assay described herein). Each well was inoculated with 10^5 bacterial cells at the initial time of incubation, prepared from a fresh log phase culture (OD600 of 0.5). […] The concentration range tested for each compound during this study was 0.10 to 100 μM. DMSO served as the vehicle and negative control in each microdilution MIC assay. DMSO was serially diluted at the same concentration as the compounds with a top concentration of 1% v/v. Bacterial strains used: Staphylococcus aureus (ATCC 25923), Staphylococcus epidermidis (ATCC 12228) and Pseudomonas aeruginosa (PAO1). Kanamycin was used as a positive control against Staphylococcus aureus and Staphylococcus epidermidis.

[2] = system: Staphylococcus aureus (ATCC 25923) biofilm; experiment: Biofilm inhibition, crystal violet staining; parameters: MIC/IC50 Biofilm: unit not given here; conditions: for Phenotype: planktonic growth vs biofilm formation; for IC50: Staphylococcus aureus; for MIC/IC50 Biofilm: ratio of MIC to IC50 of biofilm inhibition
Procedure: Biofilm Inhibition Protocol for S. aureus (ATCC 25923). A serial two-fold dilution of 2× bromophenazine small molecule concentration was made in 100 μL tryptic soy broth (TSB) medium with 0.5% glucose were delivered into 0.1% gelatin (Millipore) coated 96-well tissue culture plates. […] To each well, 100 μL of TSB with 0.5% glucose containing 2×10^6 CFU/mL Staphylococcus aureus cells, prepared from fresh culture (OD600 of 0.8), was added. The plates were incubated at 37° C. for 24 hours. The wells were gently rinsed by submerging the entire plates in a tub of cold, running tap water. The wells were then fixed with 200 μL methanol for 15 minutes. After the plates were air dried, the biofilms were stained with 100 μL of 1% crystal violet for 10 minutes. The plates were again rinsed with running water. After drying in air, quantitative assessment of biofilm formation was obtained by extracting the crystal violet associated with the remaining biofilm with 100 μL per well of the following bleaching solution (methanol:glacial acetic acid:water (v/v/v)=4:1:5). This bleaching solution dissolved the bound crystal violet and produced a violet-colored solution in each well. The intensity of coloration was determined by measuring the absorbance at 540 nm.

[3] = system: Acinetobacter baumannii (ATCC 19606) biofilm; experiment: Biofilm inhibition, Mueller-Hinton broth, crystal violet; conditions: for inhibition at 100 µM: Acinetobacter baumannii
Procedure: (§2) Biofilm Inhibition Protocol for A. baumannii (ATCC 19606): In a 96-well plate, ten two-fold serial dilutions of each compound tested were made from the highest concentration tested (100 μM) in a final volume of 100 μL in Mueller-Hinton broth (one column served as a blank). Each well was inoculated with ˜7×10^6 colony forming units per milliliter (corresponding to an OD600 of 0.01 prepared directly from an overnight culture). A lid was placed on the 96-well plate which was wrapped in suran wrap, placed in a humidifying chamber and incubated under static conditions at 37° C. for 24 hours. Following incubation, the media and planktonic bacteria were then removed from 96-well plates and the wells were then washed with water. The bacterial biofilms within the microtiter wells were stained with 200 μL of an aqueous 0.1% crystal violet solution that was allowed to stand for 10-20 minutes. The crystal violet stain was then removed, the wells were rinsed with water and dried. The crystal violet stain that remained on the inside of the wells (i.e., stained bacterial biofilm) on the inside of the wells was solubilized by the addition of 200 μL ethanol and absorbance was read at OD540 using a spectrophotometer. NOTE: The concentration range tested for each compound was 0.2-100 μM. Single data points for all compounds and DMSO controls were tested in two replicate rows in 96-well plates and corresponding absorbance readings were averaged for the quantification of planktonic growth and biofilm formation. Reported percent biofilm inhibition was determined by the comparison of compound treated wells (the average of the two replicate wells) versus vehicle control wells without compound following background subtraction (i.e., an empty, untreated well) and reported from 2 to 4 independent overnight cultures. DMSO was serially diluted at the same concentration as test compounds with a top concentration of 1% v/v.
(§3) The bromophenazines were also evaluated against the Gram-negative bacterium Acinetobacter baumannii in order to identify biofilm modulating small molecules against this emerging pathogen. Acinetobacter baumannii is notorious for its ability to persist as bacterial biofilms on hospital surfaces, giving rise to many multidrug-resistant nosocomial infections. Clinical isolates of A. baumannii have been identified that are resistant to every class of antibiotic clinically used. The bromophenazines were evaluated against Acinetobacter baumannii ATCC 19606 in biofilm inhibition assays. Bromophenazines were allowed to incubate in 96-well plates with Acinetobacter baumannii (˜7×10^6 CFUmL^−1 by adjusting an overnight culture to an OD600˜0.01) for 24 hours at 37° C. using Mueller-Hinton broth followed by spectrophometer readings of each plate to evaluate planktonic growth (OD600) and biofilm formation (OD540 after crystal violet stain of biofilms inside microtiter wells). […] This biofilm inhibition with activation of planktonic growth activity was dose-dependent with bromophenazine 17a (see FIG. 20).

[4] = system: Acinetobacter baumannii (ATCC 19606); experiment: Planktonic growth (OD600) in biofilm inhibition assay; conditions: for inhibition of growth at 100 µM: Acinetobacter baumannii, ATCC19606, 24 h, read-out: % Growth Inhibition at 100 μM; for increase in planktonic growth: OD600
Procedure: as §2, with “Each” for “Biofilm Inhibition Protocol for A. baumannii (ATCC 19606): In a 96-well plate, ten two-fold serial dilutions of each compound tested were made from the highest concentration tested (100 μM) in a final volume of 100 μL in Mueller-Hinton broth (one column served as a blank). Each”, “NOTE: The concentration range tested for each compound was 0.2-100 μM.” left out
as §3

[5] = system: Staphylococcus epidermidis (ATCC 12228); experiment: MIC broth microdilution (CLSI), Luria Broth; conditions: ATCC12228, Table 1, ATCC 12228, read-out: Staphylococcus epidermidis MIC
Procedure: as §1

[6] = Staphylococcus aureus, ATCC25923, Table 2, S. aureus ATCC 25923, Luria Broth, read-out: MIC
[7] = ATCC25923, S. aureus ATCC 25923, single replicate screen, read-out: Biofilm Inhibition IC50
[8] = ATCC19606, A. baumannii ATCC 19606, 100 μM, read-out: % Biofilm Inhibition at 100 μM
[9] = A. baumannii ATCC 19606, 100 μM, * = no growth inhibition at 200 μM
[10] = Staphylococcus aureus, ATCC25923, Table 1, ATCC 25923, range tested 0.10 to 100 μM, read-out: Staphylococcus aureus MIC
[11] = Staphylococcus aureus, ATCC25923, Table 1, ATCC 25923, read-out: Staphylococcus aureus MIC

Structure (SMILES)	MIC [1, 6]	Phenotype ([2]; S. aureus ATCC 25923)	IC50 [2, 7]	MIC/IC50 Biofilm ([2]; S. aureus ATCC 25923)	inhibition at 100 µM [3, 8]	inhibition of growth at 100 µM [4, 9]	other results
O=C(Oc1c(Br)cc(Br)c2nc3ccccc3nc12)c1cccs1 [Compound 24a]	> 100 µM	antibacterial; also recorded: antibacterial**	0.79 µM	>127**	32 ± 8%	-10 ± 7%	MIC ([1]; Table 2, S. aureus ATCC 25923, Luria Broth): >100** μM
CN(C)C(=O)Oc1c(Br)cc(Br)c2nc3ccccc3nc12 [Compound 25a]	–	–	–	–	–	–	MIC ([1]; Staphylococcus aureus, ATCC25923): > 100 µM; IC50 ([2]; ATCC25923, read-out: Biofilm Inhibition IC50): > 100 µM; inhibition at 100 µM ([3]; ATCC19606, read-out: % Biofilm Inhibition at 100 μM): 15 ± 1%; inhibition of growth at 100 µM [4]: -3 ± 1%
Cc1cc(C)c(C(=O)Oc2c(Br)cc(Br)c3nc4ccccc4nc23)c(C)c1 [Compound 19a]	> 100 µM	inactive	> 100 µM	–	44 ± 10%	-14 ± 2%	increase in planktonic growth ([4]; 100 μM): ~15%; planktonic growth inhibition at 200 μM [4]: did not inhibit planktonic growth
O=C(Oc1c(Br)cc(Br)c2nc3ccccc3nc12)c1ccc(F)cc1 [Compound 24, 2,4-Dibromophenazin-1-yl 4-fluorobenzoate]	1.56 µM	antibacterial	2.44 µM	0.6	35 ± 4%	-16 ± 6%	MIC [1, 10]: 1.56 µM; MIC [1, 11]: 0.74 µg/mL
O=C(Oc1c(Br)cc(Br)c2nc3ccccc3nc12)N(c1ccccc1)c1ccccc1 [Compound 26a]	> 100 µM	inactive	> 100 µM	–	40 ± 2%	-22 ± 8%	–
O=C(Oc1c(Br)cc(Br)c2nc3ccccc3nc12)c1ccc2c(c1)OCO2 [Compound 22a]	> 100 µM	–	> 100 µM	–	29 ± 4%	-14 ± 5%	–
O=C(Oc1c(Br)cc(Br)c2nc3ccccc3nc12)C1CCCCC1 [Compound 26, 2,4-Dibromophenazin-1-yl cyclohexanecarboxylate]	> 100 µM	inactive	> 100 µM	–	11 ± 1%	-25 ± 5%	MIC [1, 10]: > 100 µM; MIC [1, 11]: > 46.5 µg/mL; Phenotype ([3]; A. baumannii ATCC 19606): inactive
O=C(Oc1c(Br)cc(Br)c2nc3ccccc3nc12)c1ccc2ccccc2c1 [Compound 21a]	> 100 µM	inactive	> 100 µM	–	35 ± 9%	-15 ± 6%	increase in planktonic growth ([4]; 100 μM): ~15%; planktonic growth inhibition at 200 μM [4]: did not inhibit planktonic growth
COc1ccc(C(=O)Oc2c(Br)cc(Br)c3nc4ccccc4nc23)cc1 [Compound 20a]	> 100 µM	–	0.95 µM	>105	17 ± 5%	-6 ± 4%	IC50 ([2]; ATCC25923, S. aureus, three independent experiments, read-out: Biofilm inhibition IC50 (triplicate)): 10.3 µM; Phenotype ([3]; A. baumannii ATCC 19606): inactive
CS(=O)(=O)Oc1c(Br)cc(Br)c2nc3ccccc3nc12 [Compound 29a]	> 100 µM	–	> 100 µM	–	1 ± 2%	3 ± 3%	Phenotype ([3]; A. baumannii ATCC 19606): inactive
NC[C@H]1O[C@H](O[C@H]2[C@H](O)[C@@H](O[C@H]3O[C@H](CO)[C@@H](O)[C@H](N)[C@H]3O)[C@H](N)C[C@@H]2N)[C@H](O)[C@@H](O)[C@@H]1O [Kanamycin, reference compound]	–	–	–	–	–	–	MIC [1, 10]: 1.56 to 6.25 µM; MIC [1, 11]: 0.76 to 3.03 µg/mL; MIC [5]: 0.78 µM to 1.56 µM and 0.38 µg/mL to 0.76 µg/mL
COc1c(Br)cc(Br)c2nc3ccccc3nc12 [Compound 27, 2,4-Dibromo-1-methoxyphenazine]	–	–	–	–	–	–	MIC [1, 10]: > 100 µM; MIC [1, 11]: > 36.9 µg/mL
O=C(Oc1c(Br)cc(Br)c2nc3ccccc3nc12)c1ccc(C(F)(F)F)cc1 [Compound 16a]	–	antibacterial	1.3 µM	9.6	29 ± 11%	-3 ± 2%	–
O=C(/C=C/c1ccccc1)Oc1c(Br)cc(Br)c2nc3ccccc3nc12 [Compound 9a]	> 100 µM	–	14.8 µM	>6.8	52 ± 5%	-18 ± 4%	increase in planktonic growth ([4]; 100 μM): ~15%; planktonic growth inhibition at 200 μM [4]: did not inhibit planktonic growth
O=C(Oc1c(Br)cc(Br)c2nc3ccccc3nc12)c1cc(C(F)(F)F)cc(C(F)(F)F)c1 [Compound 17a]	–	antibacterial	1.1 µM	11.4	60 ± 8%	-15 ± 3%	increase in planktonic growth ([4]; 100 μM): ~15%; planktonic growth inhibition at 200 μM [4]: did not inhibit planktonic growth; planktonic growth while biofilm formation is inhibited (in words) ([4]; Mueller-Hinton broth, FIG. 20): dose-dependent increases in planktonic growth
